From patent US10328003B2, “Solubilizing agents for active or functional organic compounds” (ISP INVESTMENTS LLC, priority 2015, dated 2019) come the findings set out here.

The procedure of data set [1]:
(§1) Different samples of the current solubilizing compound cycloalkyl toluate was combined with available sunscreens Escalol S, avobenzone and oxybenzone at 25° C. […] Solubility was checked for cyclohexyl ester in various sunscreen actives such as bemotrizinol, ethylhexyl triazone, avobenzone & benzophenone-3 in comparison to phenethyl benzoate.

Data set [2] is described as follows: Comparison of solubilizers combined with sunscreens: clear solution or crystal formation. It counts as physicochemical. Conditions: 25° C., FIG. 6. On the procedure: as §1

For the compound `Cc1ccc(C(=O)OC2CCCCC2)cc1` [Cyclohexyl 4-Toluate], the “Solubility of Escalol S at 25° C.” value in data set [1] is on record as 36%.
The same measure, in the same setting: to `Cc1ccccc1C(=O)OC1CCCCC1` [Cyclohexyl 2-Toluate] belongs 37%.
Turning to `O=C(OCCc1ccccc1)c1ccccc1` [Phenethyl benzoate, 2-phenylethyl benzoate, reference compound], in data set [1], the “Solubility @ 25° C. Avobenzone” value is reported as 20, the “Solubility @ 25° C. Escalol S” value amounted to 22 and the “Solubility @ 25° C. Oxybenzone” value came to 34. In addition, the “Solution appearance when combined with Escalol S, avobenzone and oxybenzone” value in data set [2] is “crystal formations”.
As to `Cc1cccc(C(=O)OC2CCCCC2)c1` [Cyclohexyl 3-Toluate], the “Solubility of Escalol S at 25° C.” value in data set [1] was determined as 35%.
The same measure, in the same setting: next, `Cc1cccc(C(=O)OC2CCCC2)c1` [Cyclopentyl 3-Toluate]: 34%.
With Cyclohexyl Toluate, in data set [1], the “Solubility @ 25° C. Avobenzone” value stood at 25, the “Solubility @ 25° C. Escalol S” value is listed as 36, the “Solubility @ 25° C. Oxybenzone” value is reported as 32 and the “Solubility of Avobenzone at 25° C.” value came to 25%. Moreover, in data set [1], the “Solubility of Escalol S at 25° C.” value is given as 36% and the “Solubility percentages of sunscreen active in the solubilizer” value is recorded as 22-33%.
`Cc1cccc(C(=O)OCC2CCCCC2)c1` [Cyclohexylmethanol 3-Toluate]: in data set [1], the “Solubility of Escalol S at 25° C.” value was determined as 30%.
